Data as given in ChEMBL document CHEMBL5365412, “Discovery of benzodiazepine derivatives as a new class of covalent inhibitors of SARS-CoV-2 main protease” (Bioorg Med Chem Lett, 2023).

Legend:
[1] = target: Replicase polyprotein 1ab (Severe acute respiratory syndrome coronavirus 2, UniProt P0DTD1); assay: Inhibition of SARS-CoV-2 main protease by FRET assay
[2] = target: Replicase polyprotein 1ab (Severe acute respiratory syndrome coronavirus 2) (UniProt P0DTD1); assay: Binding affinity to SARS-CoV-2 main protease assessed as change in melting temperature by DSF assay

Row | Structure (SMILES) | IC50 [1] | ΔTm [2]
1 | O=C1CCCC2=C1C(C1CCC1)N(C(=O)CCl)c1ccc([N+](=O)[O-])cc1N2 (stereo unspecified) | 2.48 µM | 5.83 °C
2 | CC1(C)CC(=O)C2=C(C1)Nc1cc([N+](=O)[O-])ccc1N(C(=O)CCl)C2C1CCC1 (stereo unspecified) | 9.57 µM | 2.72 °C
3 | CC1(C)CC(=O)C2=C(C1)Nc1cc([N+](=O)[O-])ccc1N(C(=O)CCl)C2c1ccccc1 (stereo unspecified) | 4.52 µM | 4.74 °C
4 | O=C1CCCC2=C1C(c1ccc(C(F)(F)F)cc1)N(C(=O)CCl)c1ccc([N+](=O)[O-])cc1N2 (stereo unspecified) | 1.02 µM | 6.6 °C
5 | CC1(C)CC(=O)C2=C(C1)Nc1cc([N+](=O)[O-])ccc1N(C(=O)CCl)C2C1CCCC1 (stereo unspecified) | 9.12 µM | 3.53 °C
6 | CC1CC(=O)C2=C(C1)Nc1cc([N+](=O)[O-])ccc1N(C(=O)CCl)C2C1CCC1 (stereo unspecified) | 7.32 µM | 2.74 °C
7 | COc1ccc(C2C3=C(CC(C)CC3=O)Nc3cc([N+](=O)[O-])ccc3N2C(=O)CCl)cc1 (stereo unspecified) | 4.45 µM | 3.13 °C
8 | CC1CC(=O)C2=C(C1)Nc1cc([N+](=O)[O-])ccc1N(C(=O)CCl)C2C1CCCCC1 (stereo unspecified) | 3.63 µM | 2.57 °C
9 | O=C1CCCC2=C1C(c1ccc(F)cc1F)N(C(=O)CCl)c1ccc([N+](=O)[O-])cc1N2 (stereo unspecified) | 4.09 µM | 2.95 °C
10 | O=C1CCCC2=C1C(C1CCCCC1)N(C(=O)CCl)c1ccc([N+](=O)[O-])cc1N2 (stereo unspecified) | 1.59 µM | 7.14 °C
11 | CC1CC(=O)C2=C(C1)Nc1cc([N+](=O)[O-])ccc1N(C(=O)CCl)C2c1ccc(OC(F)(F)F)cc1 (stereo unspecified) | 4.15 µM | 0.13 °C
12 | Cc1ccc(C2C3=C(CC(C)(C)CC3=O)Nc3cc([N+](=O)[O-])ccc3N2C(=O)CCl)cc1 (stereo unspecified) | 3.94 µM | 3.27 °C
13 | O=C1CCCC2=C1C(c1ccc(OC(F)(F)F)cc1)N(C(=O)CCl)c1ccc([N+](=O)[O-])cc1N2 (stereo unspecified) | 2.03 µM | 3.65 °C
14 | COC(=O)c1ccc2c(c1)NC1=C(C(=O)CCC1)C(c1ccc(C(F)(F)F)cc1)N2C(=O)CCl (stereo unspecified) | 0.18 µM | 8.45 °C
15 | O=C1CCCC2=C1CN(C(=O)CCl)c1ccc([N+](=O)[O-])cc1N2 | 5.11 µM | 4.1 °C
16 | N#Cc1ccc2c(c1)NC1=C(C(=O)CCC1)C(c1ccc(C(F)(F)F)cc1)N2C(=O)CCl (stereo unspecified) | 1.84 µM | 6.02 °C
17 | CC1CC(=O)C2=C(C1)Nc1cc([N+](=O)[O-])ccc1N(C(=O)CCl)C2 (stereo unspecified) | 11.5 µM | 2.79 °C
18 | CC1CC(=O)C2=C(C1)Nc1cc([N+](=O)[O-])ccc1N(C(=O)CCl)C2c1ccccc1 (stereo unspecified) | 3.36 µM | 3.16 °C
19 | CC1C2=C(CC(C)(C)CC2=O)Nc2cc([N+](=O)[O-])ccc2N1C(=O)CCl (stereo unspecified) | 23.3 µM | 1.32 °C

Row | Structure (SMILES) | IC50 [1] | ΔTm [2]
20 | CC1CC(=O)C2=C(C1)Nc1cc([N+](=O)[O-])ccc1N(C(=O)CCl)C2C1CC1 (stereo unspecified) | 9.06 µM | 4.66 °C
21 | CC1(C)CC(=O)C2=C(C1)Nc1cc([N+](=O)[O-])ccc1N(C(=O)CCl)C2c1ccc(C(F)(F)F)cc1 (stereo unspecified) | 3.73 µM | -0.54 °C
22 | CC1CC(=O)C2=C(C1)Nc1cc([N+](=O)[O-])ccc1N(C(=O)CCl)C2C1CCCC1 (stereo unspecified) | 5.15 µM | 3.01 °C
23 | Cc1ccc(C2C3=C(CC(C)CC3=O)Nc3cc([N+](=O)[O-])ccc3N2C(=O)CCl)cc1 (stereo unspecified) | 3.35 µM | 1.62 °C
24 | Cc1ccc(C2C3=C(CCCC3=O)Nc3cc([N+](=O)[O-])ccc3N2C(=O)CCl)cc1 (stereo unspecified) | 2.35 µM | 4.44 °C
25 | COc1ccc(C2C3=C(CCCC3=O)Nc3cc([N+](=O)[O-])ccc3N2C(=O)CCl)cc1 (stereo unspecified) | 2.05 µM | 4.55 °C
26 | CC1CC(=O)C2=C(C1)Nc1cc([N+](=O)[O-])ccc1N(C(=O)CCl)C2C (stereo unspecified) | 11 µM | 3.21 °C
27 | COc1ccc(C2C3=C(CC(C)(C)CC3=O)Nc3cc([N+](=O)[O-])ccc3N2C(=O)CCl)cc1 (stereo unspecified) | 4.52 µM | -2.76 °C
28 | CC1(C)CC(=O)C2=C(C1)Nc1cc([N+](=O)[O-])ccc1N(C(=O)CCl)C2c1ccc(OC(F)(F)F)cc1 (stereo unspecified) | 5.68 µM | -1.64 °C
29 | CC1CC(=O)C2=C(C1)Nc1cc([N+](=O)[O-])ccc1N(C(=O)CCl)C2c1ccc(F)cc1F (stereo unspecified) | 6.21 µM | 3.25 °C
30 | CC1CC(=O)C2=C(C1)Nc1cc([N+](=O)[O-])ccc1N(C(=O)CCl)C2c1ccc(C(F)(F)F)cc1 (stereo unspecified) | 3.31 µM | 4.02 °C
31 | CC1C2=C(CCCC2=O)Nc2cc([N+](=O)[O-])ccc2N1C(=O)CCl (stereo unspecified) | 3.69 µM | 4.5 °C
32 | CC1(C)CC(=O)C2=C(C1)Nc1cc([N+](=O)[O-])ccc1N(C(=O)CCl)C2 | 24.4 µM | 1.85 °C
33 | CC1(C)CC(=O)C2=C(C1)Nc1cc([N+](=O)[O-])ccc1N(C(=O)CCl)C2c1ccc(F)cc1F (stereo unspecified) | 9.55 µM | 2.94 °C
34 | O=C1CCCC2=C1C(C1CC1)N(C(=O)CCl)c1ccc([N+](=O)[O-])cc1N2 (stereo unspecified) | 2.55 µM | 4.77 °C
35 | CC1(C)CC(=O)C2=C(C1)Nc1cc([N+](=O)[O-])ccc1N(C(=O)CCl)C2C1CCCCC1 (stereo unspecified) | 5.26 µM | 4.64 °C
36 | CC1(C)CC(=O)C2=C(C1)Nc1cc([N+](=O)[O-])ccc1N(C(=O)CCl)C2C1CC1 (stereo unspecified) | 13.3 µM | 2.01 °C
37 | O=C1CCCC2=C1C(C1CCCC1)N(C(=O)CCl)c1ccc([N+](=O)[O-])cc1N2 (stereo unspecified) | 1.92 µM | 6.27 °C
38 | O=C1CCCC2=C1C(c1ccccc1)N(C(=O)CCl)c1ccc([N+](=O)[O-])cc1N2 (stereo unspecified) | 1.67 µM | 5.71 °C
